The supplement of paper PMC8967900

What was measured:
Experiment in all cases: selective drug sensitivity score (sDSS, relative to normal bone marrow) (sDSS (score)); higher = more potent and effective on the cell line relative to normal bone marrow cells
Conditions in all cases: 72 h
LC4-1 = system: LC4-1
TANOUE = system: TANOUE
COG-LL-319h = system: COG-LL-319h
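Further: ALL cell lines in 384-well plates, five doses spanning 10,000-fold, each plate scaled between vehicle and 100 µmol/L benzalkonium chloride controls, sDSS an adapted area-under-curve metric.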

| Structure (SMILES) | selective drug sensitivity score (LC4-1) | selective drug sensitivity score (TANOUE) | selective drug sensitivity score (COG-LL-319h) |
| --- | --- | --- | --- |
| CC[C@]1(O)C[C@H]2CN(CCc3c([nH]c4ccccc34)[C@@](C(=O)OC)(c3cc4c(cc3OC)N(C)[C@H]3[C@@](O)(C(=O)OC)[C@H](OC(C)=O)[C@]5(CC)C=CCN6CC[C@]43[C@@H]65)C2)C1 [Vinblastine] (top concentration 1000 nM) | 13.6 | -9 | 19.7 |
| CC[C@]1(O)C[C@H]2CN(CCc3c([nH]c4ccccc34)[C@@](C(=O)OC)(c3cc4c(cc3OC)N(C=O)[C@H]3[C@@](O)(C(=O)OC)[C@H](OC(C)=O)[C@]5(CC)C=CCN6CC[C@]43[C@@H]65)C2)C1 [Vincristine] (top concentration 1000 nM) | 16.7 | -11.1 | 16.3 |
| FC(F)c1nc2ccccc2n1-c1nc(N2CCOCC2)nc(N2CCOCC2)n1 [ZSTK474] (top concentration 10000 nM) | -0.44 | -7.04 | 4.86 |
